Assay results as given in US11533912B2, “Use of cinnamate compounds in the control of fungal diseases of crops” (Institute of Plant Protection, Gansu Academy of …, priority 2019, dated 2022).
Where two headings read alike, the source gives them in different places.

What was measured:
Coniella diplodiella = assay: Ex vivo mycelial growth, growth rate method; type: cell-based; conditions: 1 mg/mL
[1] = test system: Botryosphaeriana berengeriana; assay: Ex vivo mycelial growth, growth rate method (line 'Botryosphaeriana berengeriana', r23); type: cell-based; conditions: Botryosphaeriana berengeriana (first line), 1 mg/mL
Thanatephorus cucumeris = assay: Ex vivo mycelial growth, growth rate method; type: cell-based; conditions: 1 mg/mL
Exserohilum turcicum = assay: Ex vivo mycelial growth, growth rate method; type: cell-based; conditions: 1 mg/mL
Rhizoctonia solani = assay: Ex vivo mycelial growth, growth rate method; type: cell-based; conditions: 1 mg/mL
[2] = test system: damping-off (P. aphanidermatum, P capsici); assay: In-vivo control of pepper damping-off in a greenhouse (sick soil); conditions: 0.80 mg/mL, 200 mL liquor per pot
Procedure: (§1) (2) In-Vivo Determination Method • Sick soil of damping-off (P. aphanidermatum, P capsici) was collected from the fields of tomatoes, eggplants and peppers in solar greenhouse, and mixed evenly in equal proportion. Tomatoes (Variety: Song Tian Fen Yang Yang, 100 grains), eggplants (Variety: Lanza No. 2 F1 long eggplant, 100 grains), pepper (Longjiao 2 F1, 100 grains) were seeded quantitatively with the sick soil in pots (diameter: 15 cm) in a greenhouse, additionally with sterile vermiculite as the control (each 100 grains for determining the germination rate). […] The computational formula is as below: Mortality of Seedlings (%)=[number of survival seedlings in the seeded grains−number of seeded grains×(100%−germination rate)]/number of seeded grains×100; Control Effect (%)=(mortality of control seedlings−mortality of treated seedlings)/mortality of control seedlings×100.

F. verticillioide = assay: Ex vivo mycelial growth, growth rate method; type: cell-based; conditions: 1 mg/mL
Colletotrichum capsici = assay: Ex vivo mycelial growth, growth rate method; type: cell-based; conditions: 1 mg/mL
[3] = test system: damping-off (P. aphanidermatum, P capsici); assay: In-vivo control of eggplant damping-off in a greenhouse (sick soil); conditions: 0.80 mg/mL, 200 mL liquor per pot
Procedure: as §1

Valsa mali = assay: Ex vivo mycelial growth, growth rate method; type: cell-based; conditions: 1 mg/mL
Phytophthora capsici = assay: Ex vivo mycelial growth, growth rate method; type: cell-based
Pythium ultimum = assay: Supplementary determination of antifungal activity; conditions: supplementary determination results
Procedure: (3) Ex Vivo Bioassay Method • The inhibition of samples for testing on the mycelial growth of plant pathogenic fungi for testing is determined with a growth rate method. […] Fungal cakes with a diameter of 4 mm are taken from the edge of the colony, inoculated into the center of a PDA plate containing different agents of different concentrations and the DMSO control, with one piece of fungal cake inoculated in each plate (with a diameter of 9 mm), and incubated in a constant temperature incubator at a temperature of 22±1.5° C. 7 days later (10˜20 days may be needed for some pathogenic fungi), the diameter of the colony is measured with a cross over method according to the mycelial growth profile of the control pathogenic fungi, then the inhibition rate of mycelial growth is calculated. The computational formula is as below: the inhibition rate of mycelial growth (%)=[(the diameter of the control colony−the diameter of the treated colony)/the diameter of the control colony]×100.

Fusarium graminearum = assay: microbe, parasite or virus in culture; type: cell-based
C. gossypii = assay: Ex vivo mycelial growth, growth rate method; type: cell-based; conditions: 1 mg/mL
[4] = test system: F. oxysporum f. sp. vasinfectum; assay: Ex vivo mycelial growth, growth rate method; type: cell-based; conditions: 1 mg/mL
Phytophthora infestans [5] = type: cell-based; conditions: Phytophthora infestans (first line); 1 mg/mL
[6] = test system: Botryosphaeria berengeriana; assay: Ex vivo mycelial growth, growth rate method (line 'Botryosphaeria berengeriana', r34); type: cell-based; conditions: Botryosphaeria berengeriana (second line), 1 mg/mL
Mycosphaerlla melonis = assay: Ex vivo mycelial growth, growth rate method; type: cell-based; conditions: 1 mg/mL
[7] = test system: Gaeumannomyces graminis var. graminis and G. graminis var. tritici; assay: Ex vivo mycelial growth, growth rate method; type: cell-based; conditions: 1 mg/mL
zucchini powdery mildew = assay: Field efficiency test on zucchini powdery mildew; type: in vivo; conditions: 0.50 mg/mL
[8] = test system: Erysiphe cucurbitacearum or Sphaerotheca cucurbitae; assay: In-vivo control of zucchini powdery mildew in a greenhouse
Procedure: (2) In-Vivo Determination Method • Zucchini (Variety: Wuwei Xianglin extra-early 1st generation) were cultured in pots in a greenhouse, and inoculated with Erysiphe cucurbitacearum or Sphaerotheca cucurbitae at the stage of 3 to 4 leaves. […] Both sides of the leaves were sprayed evenly with a small hand-held sprayer so that the leaves were wetted by the liquor without loss. Applications were conducted every 7 days consecutively for 4 times. 10 days after the fourth application, the number of disease leaves at each grade of powdery mildew was investigated for the whole plant following the grading standard of 9 grades, to calculate the disease index and the control effect. The computational formula is as below: Disease index=[(Number of disease leaves at each grade×Corresponding grade value)/(Total number of investigated leaves×9)]×100; Control effect=(Disease index of the clear water control−Treated disease index)/Disease index of the clear water control×100.

E. polygoni = assay: In-vivo control of marrow bean powdery mildew in a greenhouse
Procedure: (2) In-Vivo Determination Method • Marrow bean (Variety: Thailand Jiadouwang) were cultured in pots in a greenhouse, and inoculated with E. polygoni at the stage of 4 leaves. […] Both sides of the leaves were sprayed evenly with a small hand-held sprayer so that the leaves were wetted by the liquor without loss. Applications were conducted every 7 days consecutively for 4 times. 10 days after the fourth application, the number of disease leaves at each grade of powdery mildew was investigated for the whole plant following the grading standard of 9 grades, to calculate the disease index and the control effect.

Pythium aphanidermatum = assay: Ex vivo mycelial growth, growth rate method; type: cell-based; conditions: 1 mg/mL
Pyricularia grisea = assay: microbe, parasite or virus in culture; type: cell-based
plant pathogenic fungi = assay: organism not typed; type: cell-based; conditions: read-out: inhibition rate on mycelial growth, range over 12 fungi
F. oxysporum f. sp. lini = assay: Ex vivo mycelial growth, growth rate method; type: cell-based; conditions: 1 mg/mL
Phytophthora infestans [9] = type: cell-based; conditions: Phytophthora infestans (second line); 1 mg/mL
Botrytis cinerea = assay: Ex vivo mycelial growth, growth rate method; type: cell-based; conditions: 1 mg/mL
[10] = test system: Blumeria graminis f. sp. trilici; assay: In-vivo control of wheat powdery mildew in a greenhouse; parameters: species or system Blumeria graminis f. sp. trilici on winter wheat
F. graminearum = assay: microbe, parasite or virus in culture; type: cell-based
Sclerotinia sclerotiorum = assay: Ex vivo mycelial growth, growth rate method; type: cell-based; conditions: 1 mg/mL
E. cichoracearum = assay: Field efficiency test on cucumber powdery mildew; conditions: 0.50 mg/mL (active ingredients)
Procedure: The first application was started on Jun. 15, 2018, and E. cichoracearum was inoculated on June 17th (the diseased leaves were harvested from the solar greenhouse near the military airfield at Xiaguanying town, Yuzhong County, moisturized in the greenhouse for 2 days, then shredded, and filtered over a gauze, the filtrate was sprayed onto both sides of the cucumber leaves with the cone nozzle of an electric sprayer for inoculation). The second, third and fourth applications were conducted on June 23rd, July 2nd, and July 9th respectively, the water consumptions of which were adjusted promptly according to the amount of water desired for spraying evenly onto both sides of the control leaves. 10 days after the fourth application, the number of disease leaves at each grade of powdery mildew was investigated following the grading standard of 9 grades, to calculate the disease index and the control effect.

[11] = Fusarium graminearum, read-out: Inhibition Rate
[12] = Fusarium oxysporum, mycelial growth

`CCOC(=O)/C=C/c1ccc(OC)c(OC)c1` [ethyl 3-(3′,4′-dimethoxyphenyl) acrylate] was tested, and the “Average Diameter of the Colony” value (Coniella diplodiella) was 0.00 cm, the inhibition at 1000 µg/mL (Coniella diplodiella; mycelial growth) was 100% and the “Average Diameter of the Colony” value [1] was 1.58 cm. For the same molecule, the inhibition at 1000 µg/mL ([1]; mycelial growth) was 72.3%, the “Average Diameter of the Colony” value (Thanatephorus cucumeris) was 0.94 cm and the inhibition at 1000 µg/mL (Thanatephorus cucumeris; mycelial growth) was 89.1%. The “Average Diameter of the Colony” value (Exserohilum turcicum) was 0.56 cm, the inhibition at 1000 µg/mL (Exserohilum turcicum; mycelial growth) was 91% and the “Average Diameter of the Colony” value (Rhizoctonia solani) was 0.00 cm. For the same molecule, the inhibition at 1000 µg/mL (Rhizoctonia solani; mycelial growth) was 100%, the “control effect on pepper damping-off” value [2] was 64.57% and the “Average Diameter of the Colony” value (F. verticillioide) was 2.28 cm. The inhibition at 1000 µg/mL (F. verticillioide; mycelial growth) was 32.5%, the “Average Diameter of the Colony” value (Colletotrichum capsici) was 0.83 cm and the inhibition at 1000 µg/mL (Colletotrichum capsici; Colletotrichum truncatum, mycelial growth) was 87.8%. The “control effect on eggplant damping-off” value [3] was 48.71%, the “Average Diameter of the Colony” value (Valsa mali) was 0.00 cm and the inhibition at 1000 µg/mL (Valsa mali; Cytospora mali, mycelial growth) was 100%. For the same molecule, the “Average Diameter of the Colony” value (Phytophthora capsici; Phytophthora capsici, 1 mg/mL) was 0.75 cm, the inhibition at 1000 µg/mL (Phytophthora capsici; mycelial growth, Phytophthora capsici, 1 mg/mL) was 85.8% and the “antifungal activity on Phytophthora capsici compared with hymexazol” value (Phytophthora capsici; supplementary determination results) was “superior to that of the control agent, hymexazol”. The “antifungal activity on Pythium ultimum compared with carbendazim” value (Pythium ultimum) was “superior to that of the control agent, carbendazim”, the “Average Diameter of the Colony” value (Fusarium graminearum; Fusarium graminearum (first line), 1 mg/mL) was 1.40 cm and the inhibition at 1000 µg/mL (Fusarium graminearum; [11]) was 73.8%. For the same molecule, the “Average Diameter of the Colony” value (C. gossypii) was 1.33 cm, the inhibition at 1000 µg/mL (C. gossypii; Colletotrichum gossypii, mycelial growth) was 75.4% and the “Average Diameter of the Colony” value [4] was 2.68 cm. For the same molecule, the inhibition at 1000 µg/mL [4, 12] was 63%, the “Average Diameter of the Colony” value (Phytophthora infestans [5]) was 1.33 cm and the “Average Diameter of the Colony” value [6] was 2.95 cm. For the same molecule, the inhibition at 1000 µg/mL ([6]; mycelial growth) was 56.6%, the “Average Diameter of the Colony” value (Mycosphaerlla melonis) was 0.05 cm and the inhibition at 1000 µg/mL (Mycosphaerlla melonis; mycelial growth) was 99.4%. For the same molecule, the “Average Diameter of the Colony” value [7] was 2.56 cm, the inhibition at 1000 µg/mL ([7]; mycelial growth) was 64.2% and the “Control Effect” value (zucchini powdery mildew) was 91.93%. The “Control Effect” value ([8]; 0.20 mg/mL) was 81.83%, the “Control Effect” value ([8]; 0.333 mg/mL) was 95.52% and the “Control Effect” value ([8]; 0.50 mg/mL) was 98.63%. For the same molecule, the “Control Effect” value (E. polygoni; 0.10 mg/mL) was 83.69%, the “Control Effect” value (E. polygoni; 0.143 mg/mL) was 97.09% and the “Control Effect” value (E. polygoni; 0.20 mg/mL) was 100%. For the same molecule, the “Average Diameter of the Colony” value (Pythium aphanidermatum) was 0.73 cm, the inhibition at 1000 µg/mL (Pythium aphanidermatum; mycelial growth) was 89.1% and the “Average Diameter of the Colony” value (Pyricularia grisea; 1 mg/mL) was 5.47 cm. The inhibition at 1000 µg/mL (Pyricularia grisea; read-out: Inhibition Rate) was 39.2%, the inhibition at 1000 µg/mL (plant pathogenic fungi) was 84.4 to 100% and the “Average Diameter of the Colony” value (F. oxysporum f. sp. lini) was 6.17 cm. The inhibition at 1000 µg/mL (F. oxysporum f. sp. lini; [12]) was 31.4%, the “Average Diameter of the Colony” value (Phytophthora infestans [9]) was 0.00 cm and the “Average Diameter of the Colony” value (Botrytis cinerea) was 0.61 cm. The inhibition at 1000 µg/mL (Botrytis cinerea; mycelial growth) was 91.9%, the “Control Effect” value ([10]; 0.143 mg/mL) was 79.47% and the “Control Effect” value ([10]; 0.20 mg/mL) was 91.55%. For the same molecule, the “Average Diameter of the Colony” value (F. graminearum; F. graminearum (second line), 1 mg/mL) was 2.74 cm, the inhibition at 1000 µg/mL (F. graminearum; [11]) was 68.1% and the “Average Diameter of the Colony” value (Sclerotinia sclerotiorum) was 1.34 cm. For the same molecule, the inhibition at 1000 µg/mL (Sclerotinia sclerotiorum; mycelial growth) was 84.4% and the “control effect on cucumber powdery mildew” value (E. cichoracearum) was 85.18%.
